pIC50: −log10 of the molar value. One block for each compound: values may come before it. Active and inactive are the calls of the source. The rule behind the calls is not given here.
Assays:
SK-MEL-2 [1] = assay: Antiproliferative activity against human SK-MEL-2 cells assessed as inhibition of cell growth; format: functional, cell-based
A-375 [2] = assay: Antiproliferative activity against human A-375 cells assessed as inhibition of cell growth measured after 72 hrs by CCK8 assay; format: functional, cell-based; conditions: A-375, 72 h
A-375 [3] = assay: Cytotoxicity against human A-375 cells assessed as inhibition of cell growth; format: functional, cell-based
[4] = Cytotoxicity against human C-28/I2 cells; format: toxicity, cell-based
MCF7 = assay: Antiproliferative activity against human MCF7 cells assessed as inhibition of cell growth measured after 72 hrs by CCK8 assay; format: functional, cell-based; conditions: MCF7, 72 h
SK-HEP1 [5] = assay: Induction of apoptosis in human SK-HEP1 cells assessed as downregulation of ERK2 expression at 2.5 uM measured after 48 hrs by fluorescent quantitative PCR analysis relative to control; format: functional
SK-HEP1 [6] = assay: Antiproliferative activity against human SK-HEP1 cells cultured as 3D spheroids assessed as appearance of crumbled spheroids at 10 uM measured after 120 hrs by fluorescence microscopic analysis; format: functional, cell-based
SK-HEP1 [7] = assay: Induction of apoptosis in human SK-HEP1 cells assessed as downregulation of B-Raf protein expression by Western blot analysis; format: functional, cell-based; conditions: dose 1-5 µM, DDE = dose-dependent effect
SK-HEP1 [8] = assay: Inhibition of colony formation in human SK-HEP1 cells assessed as reduction in number of colonies at 2 uM measured after 7 days by crystal violet staining based assay; format: functional; conditions: SK-HEP1, 168 h, time 7 day
SK-HEP1 [9] = assay: Induction of ROS production in human SK-HEP1 cells at 1 to 2 uM measured after 24 hrs by DCFH-DA staining based confocal microscopic and flow cytometry analysis; format: functional, cell-based; conditions: dose 1-2 µM
SK-HEP1 [10] = assay: Antiproliferative activity against human SK-HEP1 cells cultured as 3D spheroids assessed as appearance of collapsed spheroids at 10 uM measured after 96 hrs by fluorescence microscopic analysis; format: functional, cell-based
SK-HEP1 [11] = assay: Induction of apoptosis in human SK-HEP1 cells assessed as downregulation of ERK1 expression at 2.5 uM measured after 48 hrs by fluorescent quantitative PCR analysis relative to control; format: functional
SK-HEP1 [12] = assay: Induction of cell cycle arrest in human SK-HEP1 cells assessed as accumulation of cells at S phase at 5 uM measured after 24 hrs by propidium iodide staining based flow cytometric analysis (reference value: 33.08 %); format: functional
SK-HEP1 [13] = assay: Inhibition of colony formation in human SK-HEP1 cells assessed as reduction in number of colonies at 0.2 uM measured after 7 days by crystal violet staining based assay; format: functional, cell-based; conditions: time 7.0 day
SK-HEP1 [14] = assay: Induction of apoptosis in human SK-HEP1 cells assessed as late apoptotic cells at 1.25 to 5 uM measured after 48 hrs by AnnexinV-FITC/propidium iodide staining based flow cytometry analysis (reference value: 0.36 %); format: functional; conditions: dose 1.25-5 µM
SK-HEP1 [15] = assay: Induction of cell cycle arrest in human SK-HEP1 cells assessed as accumulation of cells at S phase at 1.25 uM measured after 24 hrs by propidium iodide staining based flow cytometric analysis (reference value: 33.08 %); format: functional
SK-HEP1 [16] = assay: Induction of apoptosis in human SK-HEP1 cells assessed as upregulation of activated caspase-9 protein expression at 1 to 2 uM by Western blot analysis; format: functional, cell-based; conditions: dose 1-2 µM
[17] = target: T1, Mitogen-activated protein kinase; ERK1/ERK2 (Homo sapiens) (UniProt P27361+P28482); assay: Inhibition of intracellular ERK1/2 phosphorylation in human A-375 cells at 5 uM by Western blot analysis; format: cell-based
SK-HEP1 [18] = assay: Inhibition of MEK1/2 phosphorylation in human SK-HEP1 cells by Western blot analysis; format: cell-based; conditions: dose 1-5 µM, DDE = dose-dependent effect
SK-HEP1 [19] = assay: Induction of cell cycle arrest in human SK-HEP1 cells assessed as accumulation of cells at G2/M phase at 2.5 uM measured after 24 hrs by propidium iodide staining based flow cytometric analysis (reference value: 18.32 %); format: functional
SK-HEP1 [20] = assay: Induction of cell cycle arrest in human SK-HEP1 cells assessed as accumulation of cells at G0/G1 phase at 1.25 uM measured after 24 hrs by propidium iodide staining based flow cytometric analysis (reference value: 48.40 %); format: functional
SK-HEP1 [21] = assay: Induction of cell cycle arrest in human SK-HEP1 cells assessed as accumulation of cells at G2/M phase at 1.25 uM measured after 24 hrs by propidium iodide staining based flow cytometric analysis (reference value: 18.32 %); format: functional
SK-HEP1 [22] = assay: Antiproliferative activity against human SK-HEP1 cells assessed as inhibition of cell growth measured after 72 hrs by CCK8 assay; format: functional, cell-based; conditions: SK-HEP1, 72 h
[23] = Cytotoxicity against human C-28/I2 cells measured after 72 hrs by CCK8 assay; format: toxicity, cell-based
SK-HEP1 [24] = assay: Induction of cell cycle arrest in human SK-HEP1 cells assessed as accumulation of cells at S phase at 2.5 uM measured after 24 hrs by propidium iodide staining based flow cytometric analysis (reference value: 33.08 %); format: functional
SK-HEP1 [25] = assay: Induction of cell cycle arrest in human SK-HEP1 cells assessed as accumulation of cells at G0/G1 phase at 5 uM measured after 24 hrs by propidium iodide staining based flow cytometric analysis (reference value: 48.40 %); format: functional
SK-HEP1 [26] = assay: Induction of cell cycle arrest in human SK-HEP1 cells assessed as accumulation of cells at G2/M phase at 5 uM measured after 24 hrs by propidium iodide staining based flow cytometric analysis (reference value: 18.32 %); format: functional
SK-MEL-2 [27] = assay: Antiproliferative activity against human SK-MEL-2 cells assessed as inhibition of cell growth measured after 72 hrs by CCK8 assay; format: functional, cell-based; conditions: SK-MEL-2, 72 h
SK-HEP1 [28] = assay: Induction of cell cycle arrest in human SK-HEP1 cells assessed as accumulation of cells at G0/G1 phase at 2.5 uM measured after 24 hrs by propidium iodide staining based flow cytometric analysis (reference value: 48.40 %); format: functional
SK-HEP1 [29] = assay: Induction of apoptosis in human SK-HEP1 cells assessed as upregulation of activated caspase-3 protein expression at 1 to 2 uM by Western blot analysis; format: functional, cell-based; conditions: dose 1-2 µM
SK-HEP1 [30] = assay: Antiproliferative activity against human SK-HEP1 cells cultured as 3D spheroids assessed as appearance of flattened spheroids at 10 uM measured after 48 hrs by fluorescence microscopic analysis; format: functional, cell-based
[31] = target: T1, Mitogen-activated protein kinase; ERK1/ERK2 (Homo sapiens); assay: Inhibition of intracellular ERK1/2 phosphorylation in human SK-HEP1 cells at 5 uM by Western blot analysis; format: cell-based
A-375 [32] = assay: Induction of apoptosis in human A-375 cells assessed as late apoptotic cells at 1.25 to 5 uM measured after 48 hrs by AnnexinV-FITC/propidium iodide staining based flow cytometry analysis (reference value: 1.61 %); format: functional; conditions: dose 1.25-5 µM
SK-HEP1 [33] = assay: Inhibition of cell migration in human SK-HEP1 cells at 2.5 uM measured after 12 to 24 hrs by inverted microscopy based wound healing assay; format: functional; conditions: time 12-24 hrs
[34] = target: T1, Mitogen-activated protein kinase; ERK1/ERK2 (Homo sapiens); assay: Inhibition of ERK1/2 phosphorylation in human SK-HEP1 cells by Western blot analysis; format: cell-based; conditions: dose 1-5 µM, DDE = dose-dependent effect
SK-HEP1 [35] = assay: Induction of apoptosis in human SK-HEP1 cells assessed as downregulation of ERK1/2 protein expression by Western blot analysis; format: functional, cell-based; conditions: dose 1-5 µM, DDE = dose-dependent effect

T1 sequence (P27361 whole entry, looked up): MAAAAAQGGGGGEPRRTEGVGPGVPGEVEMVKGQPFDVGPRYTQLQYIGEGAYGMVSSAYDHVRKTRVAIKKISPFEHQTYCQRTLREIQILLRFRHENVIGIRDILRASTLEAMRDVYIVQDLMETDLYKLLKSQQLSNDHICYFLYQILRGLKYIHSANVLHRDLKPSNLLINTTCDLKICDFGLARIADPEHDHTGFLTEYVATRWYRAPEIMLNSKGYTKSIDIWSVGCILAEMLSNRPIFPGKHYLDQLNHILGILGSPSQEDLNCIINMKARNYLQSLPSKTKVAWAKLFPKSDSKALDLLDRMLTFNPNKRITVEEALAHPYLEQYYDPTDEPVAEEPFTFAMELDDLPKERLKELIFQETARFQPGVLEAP
T1 sequence (P28482 whole entry, looked up): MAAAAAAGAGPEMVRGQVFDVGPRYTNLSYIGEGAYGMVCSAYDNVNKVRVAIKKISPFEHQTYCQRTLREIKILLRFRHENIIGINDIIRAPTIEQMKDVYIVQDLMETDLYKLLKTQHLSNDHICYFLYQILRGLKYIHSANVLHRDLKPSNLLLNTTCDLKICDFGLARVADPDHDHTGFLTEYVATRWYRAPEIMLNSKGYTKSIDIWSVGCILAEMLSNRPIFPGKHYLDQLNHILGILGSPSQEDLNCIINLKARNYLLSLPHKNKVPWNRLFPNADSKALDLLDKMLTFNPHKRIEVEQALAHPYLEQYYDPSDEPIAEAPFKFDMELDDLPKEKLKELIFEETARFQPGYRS

- pIC50 (SK-MEL-2 [1]): 4.86
- pIC50 (A-375 [2]): 4.61
- pIC50 (MCF7): 5.00
Structure (SMILES): O=c1[nH]c2c(c(O)c1Cc1ccccc1)c(=O)n(-c1ccc(OC(F)(F)F)cc1)c(=O)n2-c1ccc(OC(F)(F)F)cc1
- pIC50 (A-375 [3]): 4.89
- CC50 [4]: 35.9 µM

- pIC50 (A-375 [2]): 5.28
- inhibition [17]: Active
- pIC50 (SK-HEP1 [22]): 5.69
- pIC50 (SK-MEL-2 [27]): 5.32
- pIC50 (MCF7): 5.50
- inhibition [31]: Active
- inhibition [34]: Dde
Structure (SMILES): CN1CCN(c2cc(NCC(=O)Nc3cccc(Cl)c3)c3c(=O)n(C)c(=O)n(C)c3n2)CC1
- Activity (SK-HEP1 [5]): 60%
- Activity (SK-HEP1 [6]): Active
- Activity (SK-HEP1 [7]): Dde
- inhibition at 2 µM (SK-HEP1 [8]): 100%
- Activity (SK-HEP1 [9]): Active
- Activity (SK-HEP1 [10]): Active
- Activity (SK-HEP1 [11]): 70%
- Activity (SK-HEP1 [12]): 31.23%
- inhibition (SK-HEP1 [13]): Active
- Activity (SK-HEP1 [14]): 42.4%
- Activity (SK-HEP1 [15]): 34.59%
- Activity (SK-HEP1 [16]): Active
- inhibition (SK-HEP1 [18]): Dde
- Activity (SK-HEP1 [19]): 19.98%
- Activity (SK-HEP1 [20]): 44.1%
- Activity (SK-HEP1 [21]): 21.31%
- CC50 at 72 h [23]: > 50 µM
- Activity (SK-HEP1 [24]): 34.93%
- Activity (SK-HEP1 [25]): 44.85%
- Activity (SK-HEP1 [26]): 23.92%
- Activity (SK-HEP1 [28]): 45.09%
- Activity (SK-HEP1 [29]): Active
- Activity (SK-HEP1 [30]): Active
- Activity (A-375 [32]): 32.6%
- inhibition (SK-HEP1 [33]): Active
- Activity (SK-HEP1 [35]): Dde
